Experiment: gradient 5% acetonitrile 3 min, to 50% in 2 min, to 85% in 15 min, held 3 min, 100 µL/min
Details: column: Zorbax Extend-C18 2.1 x 50 mm; eluents: water / acetonitrile, 0.1% formic acid
In short: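 The mobile phases were water and acetonitrile, each with 0.1% formic acid, pumped at 100 μL/min through a Zorbax Extend-C18 column (2.1 × 50 mm, 1.8 μm). Pure standards were injected as mixtures of ~100 molecules and detected by a quadrupole time-of-flight mass spectrometer in positive and negative ionization mode. Retention time came from computationally picked adduct peaks, each inspected by hand.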

SMILES | RP-LC retention time
O=C(O)c1ccc(N2CCN(c3ccccn3)CC2)c(NS(=O)(=O)c2cc(F)ccc2F)c1 | 640 s
CCCn1cc(-c2ccncc2)cc1C(=O)Nc1ccc(OC)c(OC)c1 | 654 s
CNC(=O)CC1CCOC2(CCN(C(=O)C3CC3)CC2)C1 (stereo not drawn) | 580 s
O=C(N1CCc2ccccc2C1)C1(c2ccccc2)CCOCC1 | 891 s
Cc1ccc(NC(=O)c2[nH]c3cc(C)sc3c2CN2CCOCC2)c(F)c1 | 728 s
CCc1ccc(NC(=O)CSc2nccc(N3CCN(c4cc(C)ccc4C)CC3)n2)cc1 | 995 s
CC(=O)Nc1nc(-c2ccc(S(=O)(=O)Nc3ccc(C)cc3)cc2)cs1 | 854 s
O=C(CN1C(=O)CCC1=O)NC1CCCC(OC(=O)Nc2ccc(F)cc2)C1 (stereo not drawn) | 674 s
CCOc1ccccc1-c1noc(Cn2c(=O)n(-c3cccc(C)c3)c(=O)c3sccc32)n1 | 1010 s
Cc1ccc(C)c(N2CCN(S(=O)(=O)c3c(C)sc(C)c3-c3n[nH]c(C)c3C)CC2)c1 | 1190 s
Cc1cc(C)c2c(-n3cccc3)nn(CC(=O)NCCN(C)C)c2n1 | 630 s
Cn1nccc1-c1cccc(-c2noc(Cc3ccc(F)cc3)n2)c1 | 1040 s
CC(C)NC(=O)Nc1cccnc1N1CCOCC1 | 863 s
CCc1cc(=O)n(CC(=O)NCc2ccc(F)cc2F)c(N2CCOCC2)n1 | 720 s
CCN1CCN(c2ccc(NC(=O)c3ccc(F)c(Cl)c3)cn2)C1=O | 811 s
COc1ccc(OC)c(NC(=O)N(C)CCc2noc(-c3ccc(Cl)cc3)n2)c1 | 972 s
c1ccc(-c2n[nH]c(C3CCCCN3)n2)cc1 (stereo not drawn) | 574 s
O=C(Nc1cccc(Br)c1)N1CCc2nc[nH]c2C1 | 614 s
COc1ccc(-c2nc3cnccn3c2Nc2ccc(C(C)C)cc2)cc1 | 1040 s

SMILES | RP-LC retention time
CCN1C(=O)c2ccccc2Oc2ccc(C(=O)N3CCC4(CC3)OCCO4)cc21 | 770 s
O=C(Nc1ccc(C2(C(=O)NCc3ccc(F)cc3Cl)CCC2)cc1)C1CC1 | 898 s
CCCNC(=O)N1CCN(Cc2nc3cccnc3n2-c2ccc(F)cc2)CC1 | 604 s
COc1ccccc1NS(=O)(=O)c1cc2c3c(c1)CCC(=O)N3CCC2 | 799 s
COCCN(CC1(C)CCOCC1)C(=O)c1ccc(Cl)cc1 | 838 s
CCNc1cc(N2CCC(CCC(=O)NCc3c(C)nn(C)c3C)CC2)ncn1 | 575 s
CC(O)(CNC(=O)NCc1cccs1)C1CC1 (stereo not drawn) | 632 s
O=C(c1ccc2ncnc(N3CCCC3)c2c1)N1CCN(c2ccccc2F)CC1 | 659 s
CC(C)CN1CCn2cc(C(=O)N3CCN(c4ccc(F)cc4)CC3)nc2C1 | 613 s
Cc1ccc(NC(=O)C(C)Oc2cc(C(F)(F)F)c3c(C)nn(C)c3n2)c(C)c1 (stereo not drawn) | 920 s
Cc1cc(N(C)C)nc(N2CCN(C(=O)c3ccc(Br)cc3)CC2)n1 | 658 s
COc1ccc(C2Cn3cnc(C(=O)N4CCC(C(=O)Nc5ccc(C)cc5C)CC4)c3CO2)cc1 (stereo not drawn) | 740 s
Cc1ncsc1CN1CCC(c2nc(-c3ccc(F)cc3)n[nH]2)CC1 | 918 s
CCOc1cc(C2C(C(=O)N3CCCCC3)=C(C)NC3=C2C(=O)CCC3)ccc1OC(C)=O (stereo not drawn) | 710 s
CCOCCCNC(=O)c1c2c(cn(-c3ccc(F)cc3)c1=O)C(=O)CC(C)(C)C2 | 859 s
Cc1ccc(-c2nc(-c3cccc(-c4ccnn4C)c3)no2)cc1C | 1300 s
CC(=O)c1sc(Nc2nc3cc4c(cc3s2)OCO4)nc1C | 778 s
CCN1C(=O)C(CC(=O)NCC2CCCCC2)Sc2ncccc21 (stereo not drawn) | 808 s
CC1=C(c2ccc(C)c(C)c2)S(=O)(=O)N=C1N1CCC(NC(=O)C2CCC2)CC1 | 853 s

Second part, the compound after the results:

RP-LC retention time | SMILES
672 s | O=C(NCc1cccc(F)c1)c1cn2ccncc2n1
637 s | O=C(CCc1c(-c2cccc(Cl)c2)nc2ccccn12)NCc1ccco1
613 s | COCCCNC(=O)C1CCN(c2ncnc3c2oc2ccccc23)CC1
1070 s | CCN(c1ccccc1)c1nc(Cl)nc2c1cnn2C
727 s | CC(CCc1ccccc1)NC(=O)CCc1c(-c2ccc(F)cc2)nc2ccccn12 (stereo not drawn)
638 s | CCC(=O)N(C1CCOCC1)C1CCN(Cc2cn(C)c3ccccc23)CC1
796 s | CC(C)Cn1cc(CCNC(=O)c2cncc(Br)c2)c2cccnc21
942 s | CCCn1cc(S(=O)(=O)Nc2cccc(Cl)c2)c2cccnc21
720 s | CCc1nc(OCC(=O)Nc2cc(OC)cc(OC)c2)c2ccccc2n1
764 s | Cc1nc(-c2cc3cccc(C)c3nc2NCCc2ccccn2)no1
1170 s | CC1=NS(=O)(=O)N(Cc2ccccc2)C=C1C(=O)OCc1ccccc1C
1220 s | COc1cc(Cl)ccc1-c1nc(-c2ccc3c(c2)oc(=O)n3C(C)C)no1
1040 s | CCN1C(=O)COc2ccc(-c3csc(NC(=O)c4ccc(C)cc4)n3)cc21
807 s | COc1cccc(N2CCN(C(=O)C3CCN(c4nnc(-c5ccccc5)o4)CC3)CC2)c1
676 s | O=C(Nc1sc2c(c1C(c1cccnc1)N1CCN(c3ccccn3)CC1)CCCC2)c1ccco1 (stereo not drawn)
868 s | O=c1n(CCc2ccccc2)nc2ccc(S(=O)(=O)N3CCCC3)cn12
788 s | CC(C)n1nc(CNC(=O)c2ccco2)c2ccccc21
987 s | CCc1ccc(S(=O)(=O)N2CCC(C(=O)NCc3csc(-c4cccs4)n3)CC2)cc1
672 s | CCOc1ccc(-c2ccc(N3CCN(C(=O)Cc4noc5ccccc45)CC3)nn2)cc1
888 s | COc1cc2ccccc2cc1C(=O)Nc1nccs1
921 s | COc1cccc(COC(=O)C2=CN(C)S(=O)(=O)N=C2C)c1
594 s | CCC(C(=O)NCCCN1CCN(CC)CC1)n1c2ccccc2c2cnn(C)c(=O)c21 (stereo not drawn)
867 s | Cc1ccc(Cl)cc1N1CCN(C(=O)CN2C(=O)CN(C)C(=O)c3ccccc32)CC1
758 s | CC(C)CCNC(=O)c1cc2n(n1)CC(C)(C(=O)NCc1ccccc1)N(C)C2=O (stereo not drawn)
1040 s | Cc1cccc(NC(=O)Nc2nccn(-c3cccc(Cl)c3)c2=O)c1
791 s | CC(C)[C@H](C(=O)Nc1ccc(C(=O)NO)cc1)c1ccccc1
856 s | O=C(C1=NN(Cc2cccc(Cl)c2)c2ccccc2S1(=O)=O)N1CCOCC1
733 s | CCn1cc(CCNC(=O)Nc2cccc(OC)c2)c2cccnc21
931 s | Cc1cccc2c1CCN(C(=O)c1ccco1)[C@@H]2C
507 s | COc1cccc(CNC(=O)c2cc3cn(C4CC4)cc3s2)c1OC

Source: the METLIN SMRT retention time set (Domingo-Almenara et al. 2019)
